From US20170119806A1, “[…] LACTONE DERIVATIVES AND METHODS OF MAKING AND USING THEREOF” (OHIO STATE INNOVATION FOUNDATION, priority 2014, published 2017)
“Also recorded” adds a separate entry of the source.

Tests used:
CD4+ or CD8+ T cells = experiment: T cell IFN-γ production (intracellular flow cytometry in PBMCs); assay type: cell-based, human; conditions: 10 μM PL-C, 18 h, with IL-12 or IL-15; listed as PL-C
Procedure: (§1) (A) Human […] were treated with DMSO vehicle control or 10 μM PL-C for 18 hours in the presence of IL-12 (10 ng/mL) or IL-15 (100 ng/mL), as described in FIG. 37C. The cells were harvested for intracellular flow cytometry to determine the frequency of IFN-γ^+ cells in CD56^−CD3^+[…] or CD56^−CD3^+CD8^+T. Representative data from 1 out of 5 donors are shown. (B) Purified primary NK cells were treated with IL-12 (10 ng/mL) or IL-15 (100 ng/mL) with or without 10 μM PL-C for 8 hours and were sequentially co-cultured with […] labeled ARH-77 cells at various effector/target cell ratios for additional 4 hours. ^51Cr release was measured by a TopCount counter. Data shown are the means of 3 donors. […] Error bars represent S.D. (C) Purified primary NK cells were treated with 10 μM PL-C in the presence of IL-12 (10 ng/mL) (top) or IL-15 (100 ng/mL) (bottom) for 12 hours, and cell pellets were harvested for detecting granzyme A (GZMA), granzyme B (GZMB), perforin (PRF1) and Fas (Fasl) mRNA expression level by real-time RT-PCR. Data shown are the means of 6 donors. p>0.05, vehicle control versus PL-C in all panels. Error bars represent S.D.
Intracellular flow cytometry. […] Data were acquired using an LSRII (BD Biosciences) flow cytometer and analyzed using FlowJo software (Tree Star, Ashland, Oreg.).

[1] = test system: primary NK cells cocultured with ARH-77 target cells; experiment: NK cell cytotoxicity assay (51Cr release); assay type: cell-based, human; conditions: 10 μM PL-C 8 h, then 4 h coculture, with IL-12 or IL-15; listed as PL-C
Procedure: as §1
Cytotoxicity assay. Cytotoxicity assay was performed as described previously (Yu J et al. Immunity 2006, 24, 575-590; Yu J et al. Blood 2010, 115, 274-281). […] The release of ^51Cr was counted on a TopCount counter (Canberra Packard, Meriden, Conn.). […]

Toxicity of PL-C in mice = assay type: in vivo; conditions: up to 500 mg PL-C/kg body weight
Text: The findings discussed herein provide an avenue to prevent or treat cancer using natural products and their derivatives through enhancing NK cell immuno-surveillance. […] Developing less toxic drugs is important for preventing or treating some cancers, especially thr those which are dominant in children or in elderly populations, such as AML AML primarily affects older adults: the median age at diagnosis is >65 years (Estey E and Milner H. Lancet 2006, 368, 18941907; Yanada M and Naoe T. Int. J. Hematol. 2012, 96, 186-193). The 5 year survival rate of AML in older adults remains under 10% (Stein E M and Tallman M S. Int J. Hematol 2012, 96, 164-170). Elderly AML patients are less able than younger patients to tolerate effective therapies such as intensive chemotherapy and allogeneic stem cell transplantation.

[2] = test system: HT-29 human colon cancer cells
Procedure: The cytotoxicity of the test compounds was screened against HT-29 cells by a previously reported procedure (Ren Y et al. J. Nat. Prod 2011, 74, 1117-1125). Paclitaxel and etoposide were used as positive controls.
All arylnaphthalene lignans isolated from P. poilanet in the present study and their semi-synthetic analogues were evaluated for their cytotoxicity against HT-29 human colon cancer cells, using paclitaxel as the positive control (Table 6) (Ren Y et al. J. Nat. Prod 2011, 74, 1117-1125).

## COc1cc2c(OC3OCC(O)C(O)C3O)c3c(c(-c4ccc5c(c4)OCO5)c2cc1OC)C(=O)OC3 (stereo not shown) [Compound 4, Phyllanthusmin C]
CD4+ or CD8+ T cells
  T cell IFN-γ production: little or no; also recorded: negligibly activated T cell IFN-γ production; also recorded: few, if any
[1]
  NK cell cytotoxicity: no statistically significant difference; also recorded: little or no; also recorded: did not activate NK cell cytotoxicity; also recorded: limited effect on NK cytotoxicity
Toxicity of PL-C in mice
  toxicity in mice: lack of substantial toxicities
[2]
  cytotoxicity toward HT-29 cells (in words): cytotoxic
